# Patent US20240150334A1, “HSD17B13 INHIBITORS AND/OR DEGRADERS” (Pfizer Inc., priority 2022, published 2024)
# Counter-ions that a name gives are not always drawn.
# Legend:
# HSD17B13 enzyme = HSD17B13 enzyme (Homo sapiens (Human), UniProt Q7Z5P4); assay: hHSD17B13 IC50 Assay (FAC beta-estradiol), purified protein enzyme activity assay with NAD(P)H-Glo luciferase readout; format: biochemical; conditions: geometric mean, 12 μM FAC beta-estradiol, 500 μM NAD+, read-out: hHSD17B13_IC50 GMean IC50
# Chain of HSD17B13 enzyme (Q7Z5P4 20-300): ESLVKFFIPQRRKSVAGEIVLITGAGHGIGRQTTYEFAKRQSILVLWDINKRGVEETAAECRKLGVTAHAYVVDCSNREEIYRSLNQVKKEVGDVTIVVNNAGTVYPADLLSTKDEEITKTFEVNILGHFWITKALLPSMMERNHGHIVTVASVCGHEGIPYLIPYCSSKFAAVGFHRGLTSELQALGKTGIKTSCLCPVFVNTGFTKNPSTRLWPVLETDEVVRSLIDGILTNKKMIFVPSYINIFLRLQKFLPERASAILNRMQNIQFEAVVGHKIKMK
# Description: The following protocols may of course be varied by those skilled in the art. hHSD17B13 IC50 Assay (FAC beta-estradiol)
# HSD17B13 enzyme inhibition potency of test compounds was determined using a purified protein biochemical enzyme activity assay, using NAD(P)H-Glo luciferase readout (Promega). HSD17B13 enzyme uses the oxidized form of nicotinamide adenine dinucleotide (NAD+) as a cofactor during metabolism of Beta-Estradiol (substrate) to […], while converting NAD+ to the reduced form (NADH). The Promega NAD(P)H-Glo™ assay is a homogeneous bioluminescent assay that generates a light signal from biochemical reactions that contain NADH (or nicotinamide adenine dinucleotide phosphate, NADPH). In the presence of NADH (or NADPH), the enzyme Reductase reduces a proluciferin reductase substrate to form luciferin. Luciferin then is quantified using Ultra-Glo™ Recombinant Luciferase (rLuciferase), and the light signal produced is proportional to the amount of NAD(P)H in the sample. […] The reaction was initiated by the addition of 2 μL/well purified HSD17B13 protein (30 nM FAC in assay buffer). Compound, substrate mix and HSD17B13 protein was incubated in the dark at room temperature for 2 hours before the addition of 3 μL/well NAD(P)H-Glo detection reagent, prepared from luciferase detection reagent and reductase/reductase substrate, as per manufacturer's instructions (Promega, G9061). Detection reagent was incubated in the dark for 1 hour at room temperature before plates were read on the Envision plate reader (Perkin Elmer) using a luminescent protocol. Data expressed as relative luminescent units (RLUs) were then normalized to control wells using Activity Base (IDBS). Zero percent effect (ZPE) was defined as RLUs generated from uninhibited HSD17B13 protein (vehicle control).
# wild type human HSD17B13 = wild type human HSD17B13 (Homo sapiens (Human), UniProt Q7Z5P4); assay: HEK_Beta-Est LCMS_IC50_Tekcel, whole-cell HEK-HSD17B13 inhibition assay, estrone production by LCMS; format: cell-based; conditions: geometric mean, HEK cells stably expressing wild type human HSD17B13, 25 μM FAC beta-estradiol, read-out: HEK_Beta-Est LCMS_IC50—Tekcel GMean IC50
# Chain of wild type human HSD17B13 (Q7Z5P4 20-300): as above
# Outline: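 Readout was LCMS quantitation of estrone made from beta-estradiol with NAD+ as cofactor. Whole HEK-HSD17B13 cells were given compound for 1 hour, then the reaction for 2 hours, both at 37° C. Product area ratios were normalized to vehicle controls as zero percent effect.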
Structure (SMILES),IC50 (HSD17B13 enzyme) [nM],IC50 (wild type human HSD17B13) [nM]
"O=C(NC[C@H]1CC[C@H](n2cc3ccc(-c4ncc(CO)cn4)cc3n2)CC1)c1cc(F)c(O)c(F)c1 [Example 58, 3,5-difluoro-4-hydroxy-N-{[(1r,4r)-4-{6-[5-(hydroxymethyl)pyrimidin-2-yl]-2H-indazol-2-yl}cyclohexyl]methyl} benzamide]",25,280
"O=C(NC[C@]12CC[C@](c3nc(-c4ccc(C(F)F)nc4)no3)(CC1)CC2)c1cc(F)c(O)c(F)c1 [Example 142, N-[(4-{3-[6-(difluoromethyl)pyridin-3-yl]-1,2,4-oxadiazol-5-yl}bicyclo[2.2.2]octan-1-yl)methyl]-3,5-difluoro-4-hydroxybenzamide]",10,160
"Cn1ccc(-c2ccc3c(c2)CN([C@H]2CC[C@H](CNC(=O)c4cc(F)c(O)c(F)c4)CC2)C3=O)n1 [Example 20, 3,5-Difluoro-4-hydroxy-N-({(1r,4r)-4-[5-(1-methyl-1H-pyrazol-3-yl)-1-oxo-1,3-dihydro-2H-isoindol-2-yl]cyclohexyl}methyl)benzamide]",16,490
"O=C(NC[C@H]1CC[C@H](c2noc(-c3ccccc3)n2)CC1)c1cc(F)c(O)c(F)c1 [Example 138, 3,5-difluoro-4-hydroxy-N-{[(1r,4r)-4-(5-phenyl-1,2,4-oxadiazol-3-yl)cyclohexyl]methyl}benzamide]",16,200
"O=C(NC[C@H]1CC[C@H](n2cc(-c3ccc4nccnc4c3)nn2)CC1)c1cc(F)c(O)c(F)c1 [Example 18, 3,5-Difluoro-4-hydroxy-N-({(1r,4r)-4-[4-(quinoxalin-6-yl)-1H-1,2,3-triazol-1-yl]cyclohexyl}methyl)benzamide]",18,420
"Cc1cc(C)nc(-c2ccc3cn([C@H]4CC[C@H](CNC(=O)c5cc(F)c(O)c(F)c5)CC4)nc3c2)n1 [Example 52, N-({(1r,4r)-4-[6-(4,6-dimethylpyrimidin-2-yl)-2H-indazol-2-yl]cyclohexyl}methyl)-3,5-difluoro-4-hydroxybenzamide]",15,330
"Cn1ncc(-c2ccc3cn([C@H]4CC[C@H](CNC(=O)c5cc(F)c(O)c(F)c5)CC4)nc3c2)c1C(F)(F)F [Example 46, 3,5-difluoro-4-hydroxy-N-{[(1r,4r)-4-{6-[1-methyl-5-(trifluoro-methyl)-1H-pyrazol-4-yl]-2H-indazol-2-yl}cyclohexyl]methyl}benzamide]",9.5,450
"O=C(NC[C@H]1CC[C@H](n2cc3cc(Cl)ccc3n2)CC1)c1cc(F)c(O)c(F)c1 [Example 132, N-{[(1r,4r)-4-(5-chloro-2H-indazol-2-yl)cyclohexyl]methyl}-3,5-difluoro-4-hydroxybenzamide, ammonium salt]",14,140
"O=C(NC[C@H]1CC[C@H](n2cc3ccc(-c4ccccn4)cc3n2)CC1)c1cc(F)c(O)c(F)c1 [Example 75, 3,5-difluoro-4-hydroxy-N-({(1r,4r)-4-[6-(pyridin-2-yl)-2H-indazol-2-yl]cyclohexyl}methyl)benzamide]",19,210
"COc1cnc(-c2noc([C@]34CC[C@](CNC(=O)c5cc(F)c(O)c(F)c5)(CC3)CC4)n2)cn1 [Example 152, 3,5-difluoro-4-hydroxy-N-({4-[3-(5-methoxypyrazin-2-yl)-1,2,4-oxadiazol-5-yl]bicyclo[2.2.2]octan-1-yl}methyl)benzamide]",10,140
"O=C(NC[C@]12CC[C@](c3nc(-c4cnc(C(F)(F)F)cn4)no3)(CC1)CC2)c1cc(F)c(O)cc1F [Example 179, 2,5-difluoro-4-hydroxy-N-[(4-{3-[5-(trifluoromethyl)pyrazin-2-yl]-1,2,4-oxadiazol-5-yl}bicyclo[2.2.2]octan-1-yl)methyl]benzamide]",16,150
"O=C(NC[C@H]1CC[C@H](c2noc(-c3cc4ccccn4n3)n2)CC1)c1cc(F)c(O)c(F)c1 [Example 176, 3,5-difluoro-4-hydroxy-N-({(1r,4r)-4-[5-(pyrazolo[1,5-a]pyridin-2-yl)-1,2,4-oxadiazol-3-yl]cyclohexyl}methyl) benzamide]",11,190
"Cc1noc([C@H]2CC[C@H](CNC(=O)c3cc(F)c(O)c(F)c3)CC2)n1 [Example 213, 3,5-difluoro-4-hydroxy-N-{[(1r,4r)-4-(3-methyl-1,2,4-oxadiazol-5-yl)cyclohexyl]methyl}benzamide]",64,
"O=C(NC[C@H]1CC[C@H](n2cc3ccc(-c4cc(C5CC5)ncn4)cc3n2)CC1)c1cc(F)c(O)c(F)c1 [Example 93, N-({(1r,4r)-4-[6-(6-cyclopropylpyrimidin-4-yl)-2H-indazol-2-yl]cyclohexyl}methyl)-3,5-difluoro-4-hydroxybenzamide]",,180

# Second part, the molecule after the results:
IC50 (HSD17B13 enzyme) [nM],IC50 (wild type human HSD17B13) [nM],Structure (SMILES)
21,250,"O=C(NC[C@H]1CC[C@H](n2cc3ccc(Cl)cc3n2)CC1)c1cc(F)c(O)c(F)c1 [Example 135, N-{[(1r,4r)-4-(6-chloro-2H-indazol-2-yl)cyclohexyl]methyl}-3,5-difluoro-4-hydroxybenzamide, ammonium salt]"
14,490,"O=C(NC[C@H]1CC[C@H](c2nc3ccccc3o2)CC1)c1cc(F)c(O)c(F)c1 [Example 1, N-{[(1r,4r)-4-(1,3-Benzoxazol-2-yl)cyclohexyl]methyl}-3,5-difluoro-4-hydroxybenzamide]"
15,300,"CN1CCN(c2ccc3cn([C@H]4CC[C@H](CNC(=O)c5cc(F)c(O)c(F)c5)CC4)nc3c2)CC1 [Example 136, 3,5-difluoro-4-hydroxy-N-({(1r,4r)-4-[6-(4-methyl-piperazin-1-yl)-2H-indazol-2-yl]cyclohexyl}methyl) benzamide, ammonium salt]"
26,2300,"Cc1ccc(-c2noc([C@H]3CC[C@H](CNC(=O)c4cc(F)c(O)c(F)c4F)CC3)n2)nn1 [Example 212, 2,3,5-trifluoro-4-hydroxy-N-({(1r,4r)-4-[3-(6-methylpyridazin-3-yl)-1,2,4-oxadiazol-5-yl]cyclohexyl}methyl) benzamide]"
11,370,"Cc1ccc(-c2ccc3cn([C@H]4CC[C@H](CNC(=O)c5cc(F)c(O)c(F)c5)CC4)nc3c2)nn1 [Example 63, 3,5-difluoro-4-hydroxy-N-({(1r,4r)-4-[6-(6-methylpyridazin-3-yl)-2H-indazol-2-yl]cyclohexyl}methyl) benzamide]"
19,190,"O=C(NC[C@H]1CC[C@H](n2cc3ccc(-c4cncnc4)cc3n2)CC1)c1cc(F)c(O)c(F)c1 [Example 76, 3,5-difluoro-4-hydroxy-N-({(1r,4r)-4-[6-(pyrimidin-5-yl)-2H-indazol-2-yl]cyclohexyl}methyl)benzamide]"
7.5,180,"COc1cnc(-c2ccc3cn([C@H]4CC[C@H](CNC(=O)c5cc(F)c(O)c(F)c5)CC4)nc3c2)nc1 [Example 66, 3,5-difluoro-4-hydroxy-N-({(1r,4r)-4-[6-(5-methoxypyrimidin-2-yl)-2H-indazol-2-yl]cyclohexyl}methyl) benzamide]"
5.7,250,"Cc1c(-c2ccc3cn([C@H]4CC[C@H](CNC(=O)c5cc(F)c(O)c(F)c5)CC4)nc3c2)cnn1C [Example 39, N-({(1r,4r)-4-[6-(1,5-dimethyl-1H-pyrazol-4-yl)-2H-indazol-2-yl]cyclohexyl}methyl)-3,5-difluoro-4-hydroxybenzamide]"
20,,"COc1ccc2cn([C@H]3CC[C@H](CNC(=O)c4cc(F)c(O)c(F)c4)CC3)nc2c1 [Example 23, 3,5-difluoro-4-hydroxy-N-{[(1r,4r)-4-(6-methoxy-2H-indazol-2-yl)cyclohexyl]methyl} benzamide]"
290,,"Cc1noc([C@H]2CC[C@H](CNC(=O)c3ccc(O)c(F)c3)CC2)n1 [Example 214, 3-fluoro-4-hydroxy-N-{[(1r,4r)-4-(3-methyl-1,2,4-oxadiazol-5-yl)cyclohexyl]methyl} benzamide]"
,250,"COc1cncc(-c2ccc3cn([C@H]4CC[C@H](CNC(=O)c5cc(F)c(O)c(F)c5)CC4)nc3c2)c1 [Example 120, 3,5-difluoro-4-hydroxy-N-({(1r,4r)-4-[6-(5-methoxypyridin-3-yl)-2H-indazol-2-yl]cyclohexyl}methyl) benzamide, trifluoroacetate salt]"
,180,"O=C(NC[C@H]1CC[C@H](n2cc3ccc(-c4csc(C5CC5)n4)cc3n2)CC1)c1cc(F)c(O)c(F)c1 [Example 85, N-({(1r,4r)-4-[6-(2-cyclopropyl-1,3-thiazol-4-yl)-2H-indazol-2-yl]cyclohexyl}methyl)-3,5-difluoro-4-hydroxybenzamide]"
